Data reported in patent US12478081B2, “Application of aspartic acid derivative in preparing animal feed additive” (ANIPHA TECHNOLOGIES PTY LTD, priority 2018, dated 2025).

Assay: Thermal stability of compounds at 60° C. (HPLC content of raw material and 2% premix)
Assay type: physicochemical
Conditions: for Detection result of the content of test sample (%) Day 5: Day 5, relative to Day 0; for Detection result of the content of test sample (%) Day 10: Day 10, relative to Day 0
Protocol: The variations of the contents of the main ingredient of the aspartic acid derivative raw material and the main ingredient of a premix containing 2% mass fraction of the aspartic acid derivative (hereinafter referred to as 2% premix) over time were investigated under the conditions of stability test at 60° C.
Experimental apparatus: drug stability incubator, Waters high-performance liquid chromatograph (HPLC), etc.
Test samples: N-carbamoyl-DL-aspartic acid (compound 1), diethyl N-carbamoyl-DL-aspartate (compound 2), Sodium N-carbamoyl-DL-aspartate (compound 3), Calcium N-carbamoyl-DL-aspartate (compound 4), Zinc N-carbamoyl-DL-aspartate (compound 5), Copper N-carbamoyl-DL-aspartate (compound 6), Iron N-carbamoyl-DL-aspartate (compound 7), N-glycyl-DL-aspartic acid (compound 8), N-(4-aminobutyryl)-DL-aspartic acid (compound 9), N-(10-aminodecanoyl)-DL-aspartic acid (compound 10), N-(14-aminomyristoyl)-DL-aspartic acid (compound 11).
Preparation of standard solution: 50 mg of the test sample raw material was ultrasonically dissolved in 50 mL of water to obtain a working reserve solution. An appropriate amount of the working reserve solution was taken and diluted with water respectively to concentrations of 125 ppm, 250 ppm, 500 ppm, and 1000 ppm for HPLC testing. It was checked whether the sample concentrations are in a linear relationship with the peak area response values in HPLC, and a standard curve was established.
Preparation of test solution: An appropriate amount of the test sample raw material and an appropriate amount of a premix containing 2% mass fraction of the test sample (hereinafter referred to as 2% premix) were separately ultrasonically dissolved in an appropriate amount of water to form a 1000 ppm solution, which is filtered through a 0.22 µm filter membrane and then analyzed by HPLC.
HPLC analysis conditions: chromatographic column: Waters C18 column (250 mm×4.6 mm, 5 μm); mobile phase: 0.05% phosphoric acid:methanol=95:5 (v:v) (raw material); 0.05% phosphoric acid: methanol (gradient elution); methanol: 5%→40% (0-15 min) curve 6, 40%→5% (15-16 min) curve 1, 5% (16-23 min) curve 1, (premix, feed); detection wavelength: 210 nm; column temperature: 25° C.; sample size: 20 μL; flow rate: 1 mL/min.
Test method: The test sample raw material and its 2% premix were placed in a culture plate, spread into a thin layer of <5 mm, and placed at 60° C. Samples were taken on the day 5 and ? day 10 for HPLC detection. Each sample was sampled three times in parallel.

SMILES	Detection result of the content of test sample (%) Day 5 (2% premix) [%]	Detection result of the content of test sample (%) Day 10 (2% premix) [%]	Detection result of the content of test sample (%) Day 5 (Raw material) [%]	Detection result of the content of test sample (%) Day 10 (Raw material) [%]
NCCCCCCCCCC(=O)NC(CC(=O)O)C(=O)O (racemic) [Compound 10, N-(10-aminodecanoyl)-DL-aspartic acid]	98.55	97.81	99.00	96.73
CCOC(=O)CC(NC(N)=O)C(=O)OCC (racemic) [Compound 2, diethyl N-carbamoyl-DL-aspartate]	98.81	98.09	97.32	96.97
NC(=O)NC(CC(=O)O)C(=O)O (racemic) [Compound 1, N-carbamoyl-DL-aspartic acid]	99.66	99.70	99.79	99.28
NCCCC(=O)NC(CC(=O)O)C(=O)O (racemic) [Compound 9, N-(4-aminobutyryl)-DL-aspartic acid]	99.41	97.68	98.46	98.09
NCCCCCCCCCCCCCC(=O)NC(CC(=O)O)C(=O)O (racemic) [Compound 11, N-(14-aminomyristoyl)-DL-aspartic acid]	98.22	97.80	97.61	95.93
NCC(=O)NC(CC(=O)O)C(=O)O (racemic) [Compound 8, N-glycyl-DL-aspartic acid]	98.57	97.32	99.78	98.02
